PMC7456513 (ACS infectious diseases, 2020)
Like-named read-outs stand apart in the source and are kept apart here.

Key:
Assay in all cases: tryptophan fluorescence quenching titration
Type in all cases: binding
HasAp [1] = molecular target: T1, HasAp (Pseudomonas aeruginosa, UniProt G3XD33); conditions: read-out: KD (nM, ± SD)
HasAp [2] = molecular target: T1, HasAp; conditions: read-out: KD (nM, ± SD); remark: listed apart in the source
HasAp [3] = molecular target: T1, HasAp

SMILES	Kd (HasAp [1]) [nM]	also measured
C1=[N+]2c3ccccc3[N+]3=Cc4ccccc4[O][Fe-]23[O]c2ccccc21 [FeSal]	1050 ± 100	
C=CC1=C(C)C2=[N+]3C1=Cc1c(C)c(C=C)c4[n]1[Ga-]31[n]3c(c(C)c(CCC(=O)O)c3=CC3=[N+]1C(=C4)C(C)=C3CCC(=O)O)=C2 (stereo not shown) [GaPPIX]	280 ± 30	
C1=[N+]2c3ccccc3[N+]3=Cc4ccccc4[O][Ga-]23[O]c2ccccc21 [GaSal]		Kd (HasAp [2]): 2050 ± 280 nM
C=CC1=C(C)C2=Cc3c(C=C)c(C)c4[n]3[Fe][n]3c(c(C)c(CCC(=O)O)c3=CC3=NC(=C4)C(C)=C3CCC(=O)O)=CC1=N2 [heme]		Kd (HasAp [3]): 350 ± 50 nM
